Measured values from paper PMC9866191, “Novel 9-Benzylaminoacridine Derivatives as Dual Inhibitors of Phosphodiesterase 5 and Topoisomerase II for the Treatment of Colon Cancer” (Molecules, 2023).

Key:
[1] = molecular target: T1, PDE5A (Homo sapiens, UniProt O76074); assay: Phosphodiesterase 5 HTRF cGMP assay; type: biochemical; conditions: for IC50: means ± S.D. (n = 4), read-out: PDE5 IC50; for inhibition at 10 µM: read-out: PDE5 % Inhibition at 10 μM
T1 construct: purchased BPS Bioscience, San Diego, CA, USA
Description: All the synthesized acridine derivatives were tested for their in vitro ability to inhibit PDE5A at a screening dose of 10 µM.
The enzyme activities of phosphodiesterase 5 (PDE5) were measured using an HTRF cGMP assay kit (Cisbio, Codolet, France). […] Afterward, the HTRF reagent (cGMP-d2 and anti-cGMP-cryptate) was added for 1 h at 25 °C, and PDE activity was assayed on an HTRF reader (Tecan Infinite F200 Pro).

[2] = test system: panel of 60 human tumor cell lines; assay: NCI 60-cell line one-dose screen (mean); type: cell-based; conditions: mean of the 60 cell lines, single dose 10^−5 M, read-out: Mean % Growth Inhibition
Description: (§1) The newly synthesized compounds were screened for their in vitro anticancer activity at the Developmental Therapeutic Program (DTP) of the National Cancer Institute (NCI). The screening involved a panel of 60 human tumor cell lines consisting of 9 tissue types to screen for potential anti-cancer agents. The primary screening of submitted compounds was performed by testing a single dose (10^−5 M) in the full NCI-60 panel. The detailed % inhibition by the tested compounds against the 60 cell lines is shown in Tables S1–S3 in the Supporting Information.

[3] = test system: CCRF-CEM; assay: NCI-60 one-dose screen; type: cell-based; conditions: Homo sapiens, Leukemia panel, single dose 10^−5 M, read-out: Growth inhibition %
[4] = test system: A498; assay: NCI-60 one-dose screen; type: cell-based; conditions: Homo sapiens; A498, Renal Cancer panel; single dose 10^−5 M; read-out: Growth inhibition %
Description: as §1

[5] = test system: HCT-15; assay: NCI-60 one-dose screen; type: cell-based; conditions: Homo sapiens; HCT-15, Colon Cancer panel; single dose 10^−5 M; read-out: Growth inhibition %
Description: as §1

[6] = test system: K-562; assay: NCI-60 one-dose screen; type: cell-based; conditions: Homo sapiens, K562; K-562, Leukemia panel; single dose 10^−5 M; read-out: Growth inhibition %
Description: as §1

[7] = test system: KM12; assay: NCI-60 one-dose screen; type: cell-based; conditions: Homo sapiens; KM12, Colon Cancer panel; single dose 10^−5 M; read-out: Growth inhibition %
Description: as §1

[8] = test system: MDA-MB-231/ATCC; assay: NCI-60 one-dose screen; type: cell-based; conditions: Homo sapiens, Breast Cancer panel, single dose 10^−5 M, read-out: Growth inhibition %
Description: as §1

[9] = test system: MDA-MB-435; assay: NCI-60 one-dose screen; type: cell-based; conditions: Homo sapiens; MDA-MB-435, Melanoma panel; single dose 10^−5 M; read-out: Growth inhibition %
Description: as §1

[10] = test system: MOLT-4; assay: NCI-60 one-dose screen; type: cell-based; conditions: Homo sapiens; MOLT-4, Leukemia panel; single dose 10^−5 M; read-out: Growth inhibition %
Description: as §1

[11] = test system: NCI-H226; assay: NCI-60 one-dose screen; type: cell-based; conditions: Homo sapiens; NCI-H226, Non-small cell lung panel; single dose 10^−5 M; read-out: Growth inhibition %
Description: as §1

[12] = test system: NCI-H460; assay: NCI-60 one-dose screen; type: cell-based; conditions: Homo sapiens; NCI-H460, Non-small cell lung panel; single dose 10^−5 M; read-out: Growth inhibition %
Description: as §1

[13] = test system: OVCAR-3; assay: NCI-60 one-dose screen; type: cell-based; conditions: Homo sapiens; OVCAR-3, Ovarian Cancer panel; single dose 10^−5 M; read-out: Growth inhibition %
Description: as §1

[14] = test system: OVCAR-5; assay: NCI-60 one-dose screen; type: cell-based; conditions: Homo sapiens; OVCAR-5, Ovarian Cancer panel; single dose 10^−5 M; read-out: Growth inhibition %
Description: as §1

[15] = test system: OVCAR-8; assay: NCI-60 one-dose screen; type: cell-based; conditions: Homo sapiens; OVCAR-8, Ovarian Cancer panel; single dose 10^−5 M; read-out: Growth inhibition %
Description: as §1

[16] = test system: RPMI-8226; assay: NCI-60 one-dose screen; type: cell-based; conditions: Homo sapiens; RPMI-8226, Leukemia panel; single dose 10^−5 M; read-out: Growth inhibition %
Description: as §1

[17] = test system: RXF 393; assay: NCI-60 one-dose screen; type: cell-based; conditions: Homo sapiens; RXF 393, Renal Cancer panel; single dose 10^−5 M; read-out: Growth inhibition %
Description: as §1

[18] = test system: SF-539; assay: NCI-60 one-dose screen; type: cell-based; conditions: Homo sapiens; SF-539, CNS Cancer panel; single dose 10^−5 M; read-out: Growth inhibition %
Description: as §1

[19] = test system: SK-MEL-28; assay: NCI-60 one-dose screen; type: cell-based; conditions: Homo sapiens; SK-MEL-28, Melanoma panel; single dose 10^−5 M; read-out: Growth inhibition %
Description: as §1

[20] = test system: SK-OV-3; assay: NCI-60 one-dose screen; type: cell-based; conditions: Homo sapiens; SK-OV-3, Ovarian Cancer panel; single dose 10^−5 M; read-out: Growth inhibition %
Description: as §1

[21] = test system: SNB-19; assay: NCI-60 one-dose screen; type: cell-based; conditions: Homo sapiens; SNB-19, CNS Cancer panel; single dose 10^−5 M; read-out: Growth inhibition %
Description: as §1

[22] = test system: TK-10; assay: NCI-60 one-dose screen; type: cell-based; conditions: Homo sapiens; TK-10, Renal Cancer panel; single dose 10^−5 M; read-out: Growth inhibition %
Description: as §1

[23] = test system: UO-31; assay: NCI-60 one-dose screen; type: cell-based; conditions: Homo sapiens; UO-31, Renal Cancer panel; single dose 10^−5 M; read-out: Growth inhibition %
Description: as §1

[24] = test system: SF-268; assay: NCI-60 one-dose screen; type: cell-based; conditions: Homo sapiens; SF-268, CNS Cancer panel; single dose 10^−5 M; read-out: Growth inhibition %
[25] = test system: LOX IMVI; assay: NCI-60 one-dose screen; type: cell-based; conditions: Homo sapiens, Melanoma panel, single dose 10^−5 M, read-out: Growth inhibition %
[26] = test system: IGROV1; assay: NCI-60 one-dose screen; type: cell-based; conditions: Homo sapiens, IGROV-1; IGROV1, Ovarian Cancer panel; single dose 10^−5 M; read-out: Growth inhibition %
[27] = test system: CCD-966SK; assay: MTT cell proliferation assay, CCD-966SK; conditions: CCD966SK skin fibroblast; 10 µM; 72 h MTT
[28] = test system: HCT-116; assay: MTT cell proliferation assay, HCT-116; conditions: for % Inhibition at 10 µM: 72 h MTT, means ± SD; for IC50: read-out: IC50 μM, 72 h MTT, means ± SD, three experiments
Description: In the MTT assay, 96-well culture plates were used. A total of 7 × 10^4 cells per well were seeded, and test materials were added to the cells at various concentrations [47, 48]. Human cancer and non-cancer cell lines were purchased commercially from the American Type Culture Collection (ATCC). After 72 h, the cytotoxicity of the compounds and paclitaxel (as a positive control group) was detected using the MTT method (thiazolyl blue tetrazolium bromide, Sigma-M2128). Absorbance values at 570 and 620 nm (OD = OD570–OD620) were measured using an ELISA reader (Anthos Labtec Instruments, Salzburg, Austria).

| Compound | IC50 [1] [µM] | inhibition at 10 µM [1] [%] | inhibition at 10 µM [2] [%] | inhibition at 10 µM [3] [%] | inhibition at 10 µM [4] [%] | inhibition at 10 µM [5] [%] | inhibition at 10 µM [6] [%] | inhibition at 10 µM [7] [%] | inhibition at 10 µM [8] [%] | inhibition at 10 µM [9] [%] | inhibition at 10 µM [11] [%] | inhibition at 10 µM [12] [%] | inhibition at 10 µM [13] [%] | inhibition at 10 µM [14] [%] | inhibition at 10 µM [15] [%] | inhibition at 10 µM [16] [%] | inhibition at 10 µM [17] [%] | inhibition at 10 µM [18] [%] | inhibition at 10 µM [19] [%] | inhibition at 10 µM [20] [%] | also measured |
| --- | --- | --- | --- | --- | --- | --- | --- | --- | --- | --- | --- | --- | --- | --- | --- | --- | --- | --- | --- | --- | --- |
| COc1cccc(CNc2c3ccccc3nc3ccccc23)c1 [Compound 6, Acridin-9-yl-(3-methoxybenzyl)-amine] | > 10 | 39.7 ± 3.2 | 63.1 | 69.8 | 96.3 | 75.6 | 93.4 | 64.1 | 50.1 | 57 | 51.9 | 90 | 45.2 | 54.1 | 68.1 | 83.3 | 86.2 | 80.6 | 18.8 | 45.3 | inhibition at 10 µM [10]: 93.6%; inhibition at 10 µM [21]: 64%; inhibition at 10 µM [22]: 48.3%; inhibition at 10 µM [23]: 73%; inhibition at 10 µM [24]: 28.8%; inhibition at 10 µM [25]: 80.2%; inhibition at 10 µM [26]: 71.7%; % Inhibition at 10 µM [27]: 54.31 ± 0.98% |
| COc1ccc(CNc2c3ccccc3nc3ccccc23)cc1 [Compound 7, Acridin-9-yl-(4-methoxybenzyl)-amine] | > 10 | < 0 | 63.2 | 61 | 90 | 78 | 93 | 66.8 | 52.6 | 59.8 | 48.6 | 90.3 | 51.9 | 53.6 | 72.3 | 84.2 | 72.4 | 72.5 | 20.4 | 46.2 | inhibition at 10 µM [10]: 90.6%; inhibition at 10 µM [21]: 66%; inhibition at 10 µM [22]: 50.5%; inhibition at 10 µM [23]: 77.9%; inhibition at 10 µM [24]: 36.6%; inhibition at 10 µM [25]: 79.1%; inhibition at 10 µM [26]: 72.8%; % Inhibition at 10 µM [27]: 13.09 ± 2.52% |
| COc1cccc(CNc2c3ccccc3nc3ccccc23)c1OC [Compound 16, Acridin-9-yl-(2,3-dimethoxybenzyl)-amine] | > 10 | 36.7 ± 8.14 | 63.9 | 60.5 | 104 | 80.2 | 84.5 | 47.6 | 58.1 | 53.7 | 48.4 | 88.4 | 34.9 | 57 | 60.8 | 83 | 70.1 | 81.1 | 33.9 | 34 | inhibition at 10 µM [10]: 82.2%; inhibition at 10 µM [21]: 64.5%; inhibition at 10 µM [22]: 40.5%; inhibition at 10 µM [23]: 74.8%; inhibition at 10 µM [24]: 38.3%; inhibition at 10 µM [25]: 87%; inhibition at 10 µM [26]: 76.8%; % Inhibition at 10 µM [27]: 29.78 ± 2.20% |
| COc1ccc(CNc2c3ccccc3nc3ccccc23)c(OC)c1 [Compound 17, Acridin-9-yl-(2,4-dimethoxybenzyl)-amine] | 6.77 ± 1.31 | 60.2 ± 5.89 | 60.8 | 44.6 | 111 | 74 | 86.8 | 45.7 | 56.4 | 61.3 | 53.7 | 83.3 | 30.8 | 49.7 | 62.2 | 65.1 | 66.6 | 85.4 | 30.7 | 36.7 | inhibition at 10 µM [10]: 81.5%; inhibition at 10 µM [21]: 66.5%; inhibition at 10 µM [22]: 45.6%; inhibition at 10 µM [23]: 72%; inhibition at 10 µM [24]: 34.3%; inhibition at 10 µM [25]: 82.3%; inhibition at 10 µM [26]: 77.5%; % Inhibition at 10 µM [27]: 35.11 ± 0.42% |
| Fc1ccc(CNc2c3ccccc3nc3ccccc23)cc1F [Compound 22, Acridin-9-yl-(3,4-difluorobenzyl)-amine] | > 10 | 36.2 ± 9.78 | 64.8 | 58.5 | 90.2 | 82 | 87.7 | 46.7 | 65.2 | 50.8 | 52.4 | 85.4 | 31.1 | 55.4 | 67.9 | 73.1 | 92.6 | 77.9 | 17.6 | 44.3 | inhibition at 10 µM [21]: 67.1%; inhibition at 10 µM [22]: 48.9%; inhibition at 10 µM [23]: 84.5%; inhibition at 10 µM [24]: 42.8%; inhibition at 10 µM [25]: 87.5%; inhibition at 10 µM [26]: 77.2%; % Inhibition at 10 µM [28]: 56.92 ± 0.61%; IC50 [28]: 6.99 ± 0.17 µM; % Inhibition at 10 µM [27]: 37.49 ± 7.38% |
| Cc1ccc2nc3ccccc3c(NCc3ccccc3)c2c1 [Compound 30, Benzyl-(2-methylacridin-9-yl)-amine] | 4.52 ± 1.74 | 68.8 ± 7.05 | 64.5 | 65.1 | 88.6 | 82 | 89 | 43.7 | 64.2 | 41.8 | 50.2 | 82.9 | 34 | 59.6 | 66.5 | 93.2 | 98.7 | 76.8 | 22 | 35.7 | inhibition at 10 µM [21]: 68.2%; inhibition at 10 µM [22]: 24.7%; inhibition at 10 µM [23]: 81.7%; inhibition at 10 µM [24]: 31%; inhibition at 10 µM [25]: 90.9%; inhibition at 10 µM [26]: 84.2%; % Inhibition at 10 µM [28]: 68.46 ± 1.55%; IC50 [28]: 5.78 ± 0.11 µM; % Inhibition at 10 µM [27]: 47.93 ± 1.06% |
